In ChEMBL document CHEMBL1201862, “PubChem BioAssay data set” (2004):
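48-hour exposure; five concentrations; linearly interpolated endpoints. GI50 = concentration required for 50% inhibition of growth.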 Active and inactive are the calls of the source. No stated cut-off is given here; in the data, active = GI50 up to about 1.1 µM and inactive = higher.

How the values were obtained:
Experiment in all cases: DTP human tumour cell line panel, 48 h
TK-10 = test system: TK-10
RXF 393 = test system: RXF 393
HCT-15 = test system: HCT-15
UO-31 = test system: UO-31
NCI-H226 = test system: NCI-H226
HCT-116 = test system: HCT-116
KM12 = test system: KM12
LOX IMVI = test system: LOX IMVI
OVCAR-5 = test system: OVCAR-5
NCI-H460 = test system: NCI-H460
Malme-3M = test system: Malme-3M
786-0 = test system: 786-0
SF-268 = test system: SF-268
UACC-62 = test system: UACC-62
RPMI-8226 = test system: RPMI-8226
IGROV-1 = test system: IGROV-1
HOP-62 = test system: HOP-62

Compound	GI50 (TK-10)	GI50 (RXF 393)	GI50 (HCT-15)	GI50 (UO-31)	GI50 (NCI-H226)	GI50 (HCT-116)	GI50 (KM12)	GI50 (LOX IMVI)	GI50 (OVCAR-5)	GI50 (NCI-H460)	GI50 (Malme-3M)	GI50 (786-0)	GI50 (SF-268)	GI50 (UACC-62)	GI50 (RPMI-8226)	GI50 (IGROV-1)	GI50 (HOP-62)
COC(=O)c1cccc2cccc(C(=O)Nc3ccc(Cl)cc3)c12	> 100 µM (inactive)	> 100 µM (inactive)	> 35.2 µM	2.94 µM (inactive)	> 100 µM (inactive)	> 35.1 µM (inactive)	> 40.9 µM (inactive)	0.664 µM (active)	> 86.9 µM (inactive)	10.3 µM (inactive)	> 100 µM (inactive)	> 100 µM (inactive)	> 68.7 µM (inactive)	0.153 µM (active)	2.09 µM (inactive)		
Cc1cc(NS(=O)(=O)c2ccc(Nc3c4ccccc4nc4c(C(=O)Nc5ccc(S(N)(=O)=O)cc5)cccc34)cc2)no1	> 100 µM (inactive)	90.6 µM (inactive)	> 100 µM	80.9 µM (inactive)		31.2 µM (inactive)	20.6 µM (inactive)	35 µM (inactive)	> 100 µM (inactive)	> 100 µM (inactive)	17.9 µM (inactive)	> 100 µM (inactive)	36.9 µM (inactive)	24.8 µM (inactive)	> 100 µM (inactive)	70.1 µM (inactive)	35.4 µM (inactive)
CC(C)(C)C1CCC2c3c([nH]c4ccccc34)C3C(=O)N(c4ccc(Br)cc4)C(=O)C3C2C1 (stereo not drawn)	20.5 µM (inactive)		13.7 µM	14.2 µM (inactive)	18.7 µM (inactive)	32.9 µM (inactive)	22.3 µM (inactive)	15.7 µM (inactive)	23.6 µM (inactive)	17.7 µM (inactive)	33.9 µM (inactive)	21.6 µM (inactive)	24.5 µM (inactive)	26.9 µM (inactive)	17.1 µM (inactive)	21.1 µM (inactive)	21.6 µM (inactive)
CC(/C=C1\CCC(CN(C)C)C1=O)c1cccc(Br)c1 (stereo not drawn)	15.7 µM (inactive)	13.3 µM (inactive)	14.9 µM	19.1 µM (inactive)	22.3 µM (inactive)	8.59 µM (inactive)	10.1 µM (inactive)		22.8 µM (inactive)	29.6 µM (inactive)	17.8 µM (inactive)	3.41 µM (inactive)	21.7 µM (inactive)	17.3 µM (inactive)	2 µM (inactive)	13.8 µM (inactive)	22.7 µM (inactive)
CC(C)=CC(=O)Oc1ccc([N+](=O)[O-])cc1	> 100 µM (inactive)	> 100 µM (inactive)	> 100 µM	> 100 µM (inactive)	> 100 µM (inactive)	> 100 µM (inactive)	38.3 µM (inactive)		> 100 µM (inactive)	> 100 µM (inactive)	> 100 µM (inactive)	> 100 µM (inactive)	> 100 µM (inactive)	> 100 µM (inactive)	> 100 µM (inactive)	> 100 µM (inactive)	> 100 µM (inactive)
CC1OC(n2cc(Cl)c(=O)[nH]c2=O)C=C(OC(=O)c2ccccc2)C1=O (stereo not drawn)	> 100 µM (inactive)	> 100 µM (inactive)	> 100 µM	> 100 µM (inactive)				> 100 µM (inactive)		> 100 µM (inactive)	> 100 µM (inactive)	> 100 µM (inactive)		> 100 µM (inactive)	> 100 µM (inactive)	> 100 µM (inactive)	> 100 µM (inactive)
O=C1CCCc2ccc([N+](=O)[O-])c(O)c21	55.7 µM (inactive)	55.1 µM (inactive)	72.9 µM	34.8 µM (inactive)	40.8 µM (inactive)	> 100 µM (inactive)	> 100 µM (inactive)	> 100 µM (inactive)	59.8 µM (inactive)	> 100 µM (inactive)	34.4 µM (inactive)	89.9 µM (inactive)	69.8 µM (inactive)	54.6 µM (inactive)		82.6 µM (inactive)	> 100 µM (inactive)
Sc1nnc(/C=C/c2ccc(Cl)c(Cl)c2)[nH]1	> 100 µM (inactive)	> 100 µM (inactive)	87.5 µM	71.3 µM (inactive)	> 100 µM (inactive)	> 100 µM (inactive)	> 100 µM (inactive)	> 100 µM (inactive)	> 100 µM (inactive)	> 100 µM (inactive)	> 100 µM (inactive)	> 100 µM (inactive)	> 100 µM (inactive)	> 100 µM (inactive)		> 100 µM (inactive)	41.4 µM (inactive)
N#C/C(=C/c1ccc([N+](=O)[O-])o1)c1ccccc1	> 100 µM (inactive)	> 100 µM (inactive)		> 100 µM (inactive)	> 100 µM (inactive)	> 100 µM (inactive)	> 100 µM (inactive)	> 100 µM (inactive)	> 100 µM (inactive)	> 100 µM (inactive)	> 100 µM (inactive)	> 100 µM (inactive)	> 100 µM (inactive)	> 100 µM (inactive)	> 100 µM (inactive)		> 100 µM (inactive)
CCO/C=C1\N=C(C(Cl)c2ccccc2)OC1=O (stereo not drawn)	> 100 µM (inactive)	> 100 µM (inactive)	> 100 µM	> 100 µM (inactive)	> 100 µM (inactive)		> 100 µM (inactive)	> 100 µM (inactive)	> 100 µM (inactive)	> 100 µM (inactive)	> 100 µM (inactive)	> 100 µM (inactive)	> 100 µM (inactive)	> 100 µM (inactive)	> 100 µM (inactive)	> 100 µM (inactive)	> 100 µM (inactive)
C[N+](C)(C)CC1CCCC/C1=N\OC(=O)c1ccccc1 (stereo not drawn)	36.1 µM (inactive)	> 100 µM (inactive)	> 100 µM	> 100 µM (inactive)		> 100 µM (inactive)	> 100 µM (inactive)	> 100 µM (inactive)	> 100 µM (inactive)	> 100 µM (inactive)	> 100 µM (inactive)	> 100 µM (inactive)	> 100 µM (inactive)	> 100 µM (inactive)	> 100 µM (inactive)	> 100 µM (inactive)	> 100 µM (inactive)
C=C(c1ccccc1N)[C@@]1(O)C[C@H](/C(=C\C)CO)C[C@@H]1NCc1ccccc1	20.8 µM (inactive)	16.7 µM (inactive)	29 µM	17.4 µM (inactive)	15 µM (inactive)	15.3 µM (inactive)	18.2 µM (inactive)	17.1 µM (inactive)		20.7 µM (inactive)	13.4 µM (inactive)	20.6 µM (inactive)	30.8 µM (inactive)	28.6 µM (inactive)	19.1 µM (inactive)	31.9 µM (inactive)	32.7 µM (inactive)
S=P(c1ccccc1)(c1ccccc1)C1(C2(P(=S)(c3ccccc3)c3ccccc3)CC2)CC1	> 100 µM (inactive)	> 100 µM (inactive)	> 100 µM	> 100 µM (inactive)	> 100 µM (inactive)	> 100 µM (inactive)	> 100 µM (inactive)	> 100 µM (inactive)	> 100 µM (inactive)	> 100 µM (inactive)		> 100 µM (inactive)	> 100 µM (inactive)	> 100 µM (inactive)		> 100 µM (inactive)	> 100 µM (inactive)
COC(=O)/C1=C/C2CC(/C=C(/c3ccccc3)C(=O)O1)C2	32.7 µM (inactive)	25.1 µM (inactive)	18.8 µM	32.9 µM (inactive)	20.4 µM (inactive)	21.8 µM (inactive)	23.8 µM (inactive)	17.5 µM (inactive)		32.6 µM (inactive)	12.1 µM (inactive)	37.5 µM (inactive)		14.7 µM (inactive)	18.3 µM (inactive)	42.4 µM (inactive)	44.2 µM (inactive)
N#CC(c1ccc(Cl)cc1)c1cccc(C(C#N)c2ccc(Cl)cc2)n1 (stereo not drawn)	7.29 µM (inactive)			4.65 µM (inactive)	37.4 µM (inactive)		17.6 µM (inactive)		> 100 µM (inactive)	23.1 µM (inactive)	30.6 µM (inactive)	50.4 µM (inactive)	27 µM (inactive)	14 µM (inactive)	82 µM (inactive)		93.8 µM (inactive)
c1ccc2c(c1)c1ccccc1c1n[se]nc21	48.4 µM (inactive)	68.5 µM (inactive)	> 100 µM	33.1 µM (inactive)			> 100 µM (inactive)	> 100 µM (inactive)	35.6 µM (inactive)	75.3 µM (inactive)	> 100 µM (inactive)	39 µM (inactive)	> 100 µM (inactive)	> 100 µM (inactive)	> 100 µM (inactive)	36.1 µM (inactive)	
O=C(CSc1nc(-c2ccccc2)c(-c2ccccc2)[nH]1)N/N=C/c1ccc(O)cc1	27.6 µM (inactive)	24.2 µM (inactive)		28.1 µM (inactive)	31.3 µM (inactive)	22.5 µM (inactive)	22.6 µM (inactive)	17.9 µM (inactive)		20 µM (inactive)	21.4 µM (inactive)	22.6 µM (inactive)	26.6 µM (inactive)	22.1 µM (inactive)	25.7 µM (inactive)	26.4 µM (inactive)	19.3 µM (inactive)
NNC(=O)/C(=C/c1ccc(Cl)c(Cl)c1)NC(=O)c1ccccc1	> 100 µM (inactive)	> 100 µM (inactive)		> 100 µM (inactive)	> 100 µM (inactive)	> 100 µM (inactive)	> 100 µM (inactive)	> 100 µM (inactive)	> 100 µM (inactive)	> 100 µM (inactive)	> 100 µM (inactive)	> 100 µM (inactive)	> 100 µM (inactive)	> 100 µM (inactive)	38.5 µM (inactive)	> 100 µM (inactive)	> 100 µM (inactive)
